pKd: −log10 of the molar value. Peptide text beside a SMILES is read from it.
What was measured:
Experiment in all cases: Fluorescence polarization SH3 domain-PRP binding
Settings in all cases: FP, 0.2 µM fluorescein-labeled peptide, SH3 domain 0-200 µM, Tris/HCl pH 7.5, 25 °C, quadratic fit
NPHP1 SH3 domain = target: T1, NPHP1 SH3 domain (Homo sapiens, UniProt O15259)
T1 construct: GST (N); made in house; host or cells: Escherichia coli CodonPlus, Rosetta, BL21(DE3)
T1 sequence (O15259 152-212 limits assumed): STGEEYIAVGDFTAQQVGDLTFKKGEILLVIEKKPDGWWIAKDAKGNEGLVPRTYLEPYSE
Procedure: (§1) The interaction between fluorescein-labeled proline-rich peptides (0.2 µM) and increasing concentrations of SH3 domains (ranging from 0 to 200 µM) was measured in a buffer (containing 30 mM Tris/HCl (pH 7.5), 5 mM MgCl2, and 3 mM DTT at 25 °C) in a total volume of 200 µL using a Fluoromax 4 fluorimeter in polarization mode and a quartz glass fluorescence cuvette (Hellma Ultra-Micro Cuvette 105.250-QS, Thermo Fisher Scientific, Waltham, MA USA). Excitation was performed at 470 nm and emission was measured at 560 nm. Dissociation constants (Kd) were determined by fitting the concentration-dependent binding curve to a quadratic ligand binding equation.
(§2) Fluorescence polarization measurements were performed to determine the binding affinities of SH3 domain–PRP interaction pairs from the dot blot analysis. SH3 proteins were titrated at increasing concentrations against fluorescent PRPs, which were kept at a constant concentration of 0.2 µM. GRB2-2^W193K, which is defective in the binding of PRPs such as RP1, was used as a negative control as previously described. […] The resulting data (Figure S6) allowed the evaluation of equilibrium dissociation constants (Kd) for 45 interactions between the SH3 domains and the PRPs (Figure 2B; Table S6).
(§3) Figure S6. Interactions of the SH3 domains with fluorescent PRPs measured by fluorescence polarization.
(§4) Fluorescent peptides (0.2 µM) were titrated with increasing concentrations of the corresponding SH3 domains.
(§5) GRB2-2W193K, defective in the binding of PRPs such as RP1, was used as a negative control as previously described. The x-axis represents SH3 domain concentrations as GST fusion proteins in µM, while the y-axis represents fluorescence polarization. The equilibrium dissociation constants (Kd) for the respective measurements were determined by fitting the titration curves to a quadratic ligand-binding equation (solid lines). All Kd values are […]
(§6) Error bars are derived from the fitting errors.

[1] = target: T2, ITSN1-3 SH3 domain (aa 1002-1060) (Homo sapiens, UniProt Q15811)
T2 construct: 1002-1060; GST (N); made in house; host or cells: Escherichia coli CodonPlus, Rosetta, BL21(DE3)
T2 sequence (Q15811 1002-1060): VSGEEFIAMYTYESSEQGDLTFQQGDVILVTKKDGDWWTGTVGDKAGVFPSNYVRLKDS
Procedure: as §1, §2, §3, §4, §5, §6
(§7) (1 picture or pasted object on this page, not shown here)

[2] = target: T3, ARHGAP12 SH3 domain (aa 12-74) (Homo sapiens, UniProt Q8IWW6)
T3 construct: 12-74; GST (N); made in house; host or cells: Escherichia coli CodonPlus, Rosetta, BL21(DE3)
T3 sequence (Q8IWW6 12-74): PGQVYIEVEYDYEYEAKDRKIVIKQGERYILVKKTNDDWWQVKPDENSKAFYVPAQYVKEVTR
Procedure: as §1, §2, §3, §4, §5, §6, §7

[3] = target: T4, ITSN1-1 SH3 domain (aa 740-806) (Homo sapiens, UniProt Q15811)
T4 construct: 740-806; GST (N); made in house; host or cells: Escherichia coli CodonPlus, Rosetta, BL21(DE3)
T4 sequence (Q15811 740-806): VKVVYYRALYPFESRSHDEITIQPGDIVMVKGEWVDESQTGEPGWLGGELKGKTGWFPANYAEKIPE
Procedure: as §1, §2, §3, §4, §5, §6, §7

[4] = target: T5, DLG2 SH3 domain (aa 536-606) (Homo sapiens, UniProt Q15700)
T5 construct: 536-606; GST (N); made in house; host or cells: Escherichia coli CodonPlus, Rosetta, BL21(DE3)
T5 sequence (Q15700 536-606): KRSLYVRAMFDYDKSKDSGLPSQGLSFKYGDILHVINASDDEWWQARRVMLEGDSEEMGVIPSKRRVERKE
Procedure: as §1, §2, §3, §4, §5, §6, §7

[5] = target: T6, ITSN1-2 SH3 domain (aa 913-971) (Homo sapiens, UniProt Q15811)
T6 construct: 913-971; GST (N); made in house; host or cells: Escherichia coli CodonPlus, Rosetta, BL21(DE3)
T6 sequence (Q15811 913-971): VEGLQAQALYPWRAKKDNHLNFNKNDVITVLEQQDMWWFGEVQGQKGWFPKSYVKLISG
Procedure: as §1, §2, §3, §4, §5, §6, §7

[6] = target: T7, CRK-1 SH3 domain (aa 132-192) (Homo sapiens, UniProt P46108)
T7 construct: 132-192; GST (N); made in house; host or cells: Escherichia coli CodonPlus, Rosetta, BL21(DE3)
T7 sequence (P46108 132-192): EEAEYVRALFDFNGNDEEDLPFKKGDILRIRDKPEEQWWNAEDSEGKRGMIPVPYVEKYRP
Procedure: as §1, §2, §3, §4, §5, §6, §7

[7] = target: T8, ARHGEF30 (OBSCN) SH3 domain (aa 5600-5667) (Homo sapiens, UniProt Q5VST9)
T8 construct: 5600-5667; GST (N); made in house; host or cells: Escherichia coli CodonPlus, Rosetta, BL21(DE3)
T8 sequence (Q5VST9 5600-5667): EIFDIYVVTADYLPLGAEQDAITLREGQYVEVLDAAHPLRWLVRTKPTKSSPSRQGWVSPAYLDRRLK
Procedure: as §1, §2, §3, §4, §5, §6, §7

[8] = target: T9, ABI1 SH3 domain (aa 446-505) (Homo sapiens, UniProt Q8IZP0)
T9 construct: 446-505; GST (N); made in house; host or cells: Escherichia coli CodonPlus, Rosetta, BL21(DE3)
T9 sequence (Q8IZP0 446-505): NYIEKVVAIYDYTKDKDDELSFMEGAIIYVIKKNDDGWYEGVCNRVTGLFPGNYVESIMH
Procedure: as §1, §2, §3, §4, §5, §6, §7

[9] = target: T10, GRB2-2 SH3 domain (aa 158-215) (Homo sapiens, UniProt P62993)
T10 construct: 158-215; GST (N); made in house; host or cells: Escherichia coli CodonPlus, Rosetta, BL21(DE3)
T10 sequence (P62993 158-215): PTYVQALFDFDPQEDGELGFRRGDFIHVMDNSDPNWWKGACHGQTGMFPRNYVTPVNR
Procedure: as §1, §2, §3, §4, §5, §6, §7

[10] = target: T11, BIN1 SH3 domain (aa 520-593) (Homo sapiens, UniProt O00499)
T11 construct: 520-593; GST (N); made in house; host or cells: Escherichia coli CodonPlus, Rosetta, BL21(DE3)
T11 sequence (O00499 520-593): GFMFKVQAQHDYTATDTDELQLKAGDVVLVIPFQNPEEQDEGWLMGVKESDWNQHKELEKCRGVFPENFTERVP
Procedure: as §1, §2, §3, §4, §5, §6, §7

[11] = target: T12, GRB2-1 SH3 domain (aa 1-58) (Homo sapiens, UniProt P62993)
T12 construct: 1-58; GST (N); made in house; host or cells: Escherichia coli CodonPlus, Rosetta, BL21(DE3)
T12 sequence (P62993 1-58): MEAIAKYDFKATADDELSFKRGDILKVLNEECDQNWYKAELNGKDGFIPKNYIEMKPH
Procedure: as §1, §2, §3, §4, §5, §6, §7

[12] = target: T13, ABL2 SH3 domain (aa 107-167) (Homo sapiens, UniProt P42684)
T13 construct: 107-167; GST (N); made in house; host or cells: Escherichia coli CodonPlus, Rosetta, BL21(DE3)
T13 sequence (P42684 107-167): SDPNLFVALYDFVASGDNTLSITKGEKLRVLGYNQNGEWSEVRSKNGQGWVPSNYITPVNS
Procedure: as §1, §2, §3, §4, §5, §6, §7

SMILES | pKd (NPHP1 SH3 domain) | pKd [1] | pKd [2] | pKd [3] | pKd [4] | pKd [5] | pKd [6] | pKd [7] | pKd [8] | pKd [9] | pKd [10] | pKd [11] | pKd [12]
CC(C)C[C@H](NC(=O)[C@@H]1CCCN1C(=O)[C@@H](NC(=O)[C@H](CCCNC(=N)N)NC(=O)[C@@H]1CCCN1C(=O)[C@H](CO)NC(=O)[C@H](CC(N)=O)NC(=O)[C@@H]1CCCN1C(=O)[C@H](C)NC(=O)[C@@H](N)CO)[C@@H](C)O)C(=O)N[C@H](C(=O)N1CCC[C@H]1C(=O)N1CCC[C@H]1C(=O)N1CCC[C@H]1C(=O)N[C@@H](C)C(=O)N[C@@H](CO)C(=O)O)[C@@H](C)O [Peptide P1] (H-SAPNSPRTPLTPPPAS-OH) | < 3.70 | < 3.70 | < 3.70 | < 3.70 | < 3.70 | < 3.70 | < 3.70 | < 3.70 | < 3.70 | < 3.70 | < 3.70 | < 3.70 | < 3.70
CC(C)C[C@H](NC(=O)[C@@H](NC(=O)[C@@H](N)C(C)C)[C@@H](C)O)C(=O)N1CCC[C@H]1C(=O)N[C@@H](Cc1c[nH]cn1)C(=O)NCC(=O)N1CCC[C@H]1C(=O)N[C@@H](CCCNC(=N)N)C(=O)N[C@@H](CO)C(=O)N[C@@H](C)C(=O)O [Peptide P2] (H-VTLPHGPRSA-OH) | < 3.70 | < 3.70 | < 3.70 | < 3.70 | < 3.70 | < 3.70 | < 3.70 | < 3.70 | 4.22 | < 3.70 | < 3.70 | < 3.70 | < 3.70
CC[C@H](C)[C@H](NC(=O)[C@H](CCCCN)NC(=O)[C@H](CO)NC(=O)[C@@H]1CCCN1C(=O)[C@H](CO)NC(=O)[C@H](CO)NC(=O)[C@H](CCC(=O)O)NC(=O)[C@H](C)NC(=O)[C@@H]1CCCN1C(=O)[C@H](C)NC(=O)[C@H](CO)NC(=O)[C@H](CCC(=O)O)NC(=O)[C@@H]1CCCN1C(=O)[C@H](CCCNC(=N)N)NC(=O)[C@H](CCCNC(=N)N)NC(=O)[C@H](CCCNC(=N)N)NC(=O)[C@@H]1CCCN1C(=O)[C@@H]1CCCN1C(=O)[C@@H](NC(=O)[C@@H]1CCCN1C(=O)[C@@H]1CCCN1C(=O)[C@@H]1CCCN1C(=O)[C@@H](NC(=O)[C@@H]1CCCN1C(=O)[C@@H](NC(=O)[C@@H](N)CCC(=O)O)C(C)C)C(C)C)C(C)C)C(=O)O [Peptide P3] (H-EVPVPPPVPPRRRPESAPAESSPSKI-OH) | < 3.70 | < 3.70 | 4.86 | < 3.70 | < 3.70 | < 3.70 | 4.89 | < 3.70 | < 3.70 | 4.92 | < 3.70 | 4.82 | < 3.70
CC[C@H](C)[C@H](NC(=O)[C@H](C)NC(=O)[C@@H]1CCCN1C(=O)[C@@H]1CCCN1C(=O)[C@H](CO)NC(=O)[C@H](CC(=O)O)NC(=O)[C@@H](N)CC(C)C)C(=O)N1CCC[C@H]1C(=O)N1CCC[C@H]1C(=O)N[C@@H](CCCNC(=N)N)C(=O)N[C@@H](CCC(N)=O)C(=O)N1CCC[C@H]1C(=O)N[C@H](C(=O)N[C@@H](CO)C(=O)N[C@@H](CCCCN)C(=O)O)[C@@H](C)O [Peptide P4] (H-LDSPPAIPPRQPTSK-OH) | < 3.70 | < 3.70 | < 3.70 | 5.18 | < 3.70 | < 3.70 | < 3.70 | < 3.70 | 4.61 | 4.70 | < 3.70 | 4.22 | 3.90
CC[C@H](C)[C@H](N)C(=O)N[C@@H](CO)C(=O)N[C@@H](CC(=O)O)C(=O)N1CCC[C@H]1C(=O)N1CCC[C@H]1C(=O)N[C@@H](CCC(=O)O)C(=O)N[C@@H](CO)C(=O)N1CCC[C@H]1C(=O)N1CCC[C@H]1C(=O)N[C@@H](CC(C)C)C(=O)N[C@@H](CC(C)C)C(=O)N1CCC[C@H]1C(=O)N1CCC[C@H]1C(=O)N[C@@H](CCCNC(=N)N)C(=O)N[C@@H](CCC(=O)O)C(=O)N1CCC[C@H]1C(=O)N[C@H](C(=O)N[C@@H](CCCNC(=N)N)C(=O)N[C@H](C(=O)N1CCC[C@H]1C(=O)N[C@@H](CC(=O)O)C(=O)N[C@H](C(=O)O)C(C)C)[C@@H](C)O)C(C)C [Peptide P5] (H-ISDPPESPPLLPPREPVRTPDV-OH) | < 3.70 | < 3.70 | < 3.70 | < 3.70 | < 3.70 | < 3.70 | < 3.70 | < 3.70 | < 3.70 | 4.46 | < 3.70 | 4.21 | < 3.70
CC(C)C[C@H](NC(=O)[C@H](Cc1c[nH]cn1)NC(=O)[C@H](CC(C)C)NC(=O)[C@@H]1CCCN1C(=O)[C@H](CO)NC(=O)[C@H](CO)NC(=O)[C@@H](N)CO)C(=O)N[C@@H](CCC(N)=O)C(=O)N1CCC[C@H]1C(=O)N1CCC[C@H]1C(=O)N1CCC[C@H]1C(=O)N[C@@H](CC(C)C)C(=O)NCC(=O)N[C@@H](CCCCN)C(=O)N[C@@H](CCCCN)C(=O)O [Peptide P6] (H-SSSPLHLQPPPLGKK-OH; N-terminus and C-terminus assumed) | < 3.70 | < 3.70 | < 3.70 | < 3.70 | < 3.70 | < 3.70 | < 3.70 | < 3.70 | < 3.70 | < 3.70 | < 3.70 | < 3.70 | < 3.70

Source: PMC10814857, “Functional Classification and Interaction Selectivity Landscape of the Human SH3 Domain Superfamily” (Cells, 2024)
